Counter-ions that a name gives are not always drawn. Like-named read-outs stand apart in the source and are kept apart here.
Target: hNav1.7 (Homo sapiens (Human), UniProt Q15858)
Assay: Tritiated sulfonamide competitive binding to membranes from cells expressing hNav1.7 and the β1 subunit;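 note: Filter-bound radioactivity counted by liquid scintillation, nonspecific binding defined with excess unlabelled ligand, IC50 fitted to percent inhibition of specific binding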
[1] = read-out: Ligand Binding Assay, 100 pM [3H]compound, membranes with hNav1.7 and β1 subunit, 18 h, room temperature

Sequence of hNav1.7 (Q15858 other isoform, or with tags, fused parts or gaps): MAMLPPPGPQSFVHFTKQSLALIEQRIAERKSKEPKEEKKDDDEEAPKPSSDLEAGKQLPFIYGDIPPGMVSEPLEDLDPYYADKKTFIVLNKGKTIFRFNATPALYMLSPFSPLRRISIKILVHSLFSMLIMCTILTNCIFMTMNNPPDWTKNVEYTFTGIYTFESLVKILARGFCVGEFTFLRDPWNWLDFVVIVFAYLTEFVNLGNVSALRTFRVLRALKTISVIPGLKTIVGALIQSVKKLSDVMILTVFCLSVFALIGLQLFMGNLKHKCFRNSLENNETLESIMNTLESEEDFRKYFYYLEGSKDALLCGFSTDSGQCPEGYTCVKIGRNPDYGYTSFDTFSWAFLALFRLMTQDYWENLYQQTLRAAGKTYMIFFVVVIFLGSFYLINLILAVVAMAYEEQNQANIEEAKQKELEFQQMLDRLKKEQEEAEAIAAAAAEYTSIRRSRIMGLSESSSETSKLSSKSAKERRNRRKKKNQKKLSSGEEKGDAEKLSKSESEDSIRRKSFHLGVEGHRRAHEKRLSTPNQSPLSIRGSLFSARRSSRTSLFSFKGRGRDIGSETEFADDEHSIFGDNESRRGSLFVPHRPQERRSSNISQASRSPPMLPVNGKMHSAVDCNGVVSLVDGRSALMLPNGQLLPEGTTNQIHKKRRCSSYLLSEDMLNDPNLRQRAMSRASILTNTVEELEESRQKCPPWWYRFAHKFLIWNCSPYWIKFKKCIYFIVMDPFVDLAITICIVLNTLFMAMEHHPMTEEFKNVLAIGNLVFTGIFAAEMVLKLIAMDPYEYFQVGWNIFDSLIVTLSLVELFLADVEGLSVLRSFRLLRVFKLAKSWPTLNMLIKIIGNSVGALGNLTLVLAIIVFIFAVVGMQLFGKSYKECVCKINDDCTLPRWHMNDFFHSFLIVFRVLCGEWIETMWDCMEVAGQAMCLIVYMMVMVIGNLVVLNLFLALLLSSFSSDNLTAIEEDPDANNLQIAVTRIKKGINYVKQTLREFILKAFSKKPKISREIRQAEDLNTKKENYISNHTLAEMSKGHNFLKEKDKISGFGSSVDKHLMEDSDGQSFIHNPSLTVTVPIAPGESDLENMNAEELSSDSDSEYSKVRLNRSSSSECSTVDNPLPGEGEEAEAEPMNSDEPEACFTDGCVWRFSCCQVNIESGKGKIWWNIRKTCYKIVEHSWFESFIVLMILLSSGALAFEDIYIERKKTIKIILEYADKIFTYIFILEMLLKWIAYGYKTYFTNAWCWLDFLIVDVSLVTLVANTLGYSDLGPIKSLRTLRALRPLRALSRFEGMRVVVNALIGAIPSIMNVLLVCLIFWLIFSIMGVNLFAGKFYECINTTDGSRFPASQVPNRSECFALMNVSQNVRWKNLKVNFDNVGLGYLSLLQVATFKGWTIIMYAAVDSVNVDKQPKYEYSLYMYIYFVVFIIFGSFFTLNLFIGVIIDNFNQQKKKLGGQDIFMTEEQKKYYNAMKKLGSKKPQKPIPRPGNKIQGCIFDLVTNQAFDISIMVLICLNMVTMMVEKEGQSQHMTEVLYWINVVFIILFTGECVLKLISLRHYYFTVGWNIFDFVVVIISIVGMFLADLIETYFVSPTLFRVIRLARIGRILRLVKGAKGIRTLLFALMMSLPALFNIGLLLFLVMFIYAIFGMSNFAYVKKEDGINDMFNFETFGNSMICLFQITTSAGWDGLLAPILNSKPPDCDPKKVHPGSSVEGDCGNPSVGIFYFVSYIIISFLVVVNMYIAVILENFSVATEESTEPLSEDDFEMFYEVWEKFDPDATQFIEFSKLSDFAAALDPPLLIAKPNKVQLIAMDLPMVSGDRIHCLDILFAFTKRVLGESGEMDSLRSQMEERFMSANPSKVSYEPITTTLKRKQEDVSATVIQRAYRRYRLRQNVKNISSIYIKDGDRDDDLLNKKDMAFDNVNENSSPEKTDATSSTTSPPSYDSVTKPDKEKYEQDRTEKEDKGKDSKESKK
Sequence of hNav1.7 (Q07699 19-218 partner): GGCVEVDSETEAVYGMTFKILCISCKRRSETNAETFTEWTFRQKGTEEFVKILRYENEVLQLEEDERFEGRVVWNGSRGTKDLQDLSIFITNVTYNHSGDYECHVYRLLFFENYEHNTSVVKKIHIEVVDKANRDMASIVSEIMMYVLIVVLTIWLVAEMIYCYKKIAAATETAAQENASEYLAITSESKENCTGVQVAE

Compound	IC50 [1] [nM]	IC50 [nM]
O=C(NS(=O)(=O)C1CC1)c1cc(C2CC2)c(CN2CCC(CF)(c3ccc(F)cc3)CC2)cc1F [Example 514, 5-cyclopropyl-N-(cyclopropylsulfonyl)-2-fluoro-4-((4-(fluoromethyl)-4-(4-fluorophenyl)piperidin-1-yl)methyl)benzamide, trifluoroacetic acid salt]		24.4
CS(=O)(=O)NC(=O)c1cc(C2CC2)c(OCC2CCN(Cc3cc(Cl)cc(Cl)c3)CC2)cc1F [Example 139, 5-Cyclopropyl-4-((1-(3,5-dichlorobenzyl)piperidin-4-yl)methoxy)-2-fluoro-N-(methylsulfonyl)benzamide]	4.9	
CCS(=O)(=O)NC(=O)c1cc(C2CC2)c(OCC2CCN(Cc3ccc(Cl)cc3Cl)CC2)cc1F [Example 213, 5-cyclopropyl-4-((1-(2,4-dichlorobenzyl)piperidin-4-yl)methoxy)-N-(ethylsulfonyl)-2-fluorobenzamide]	2.5	
CC(c1cc(F)cc(F)c1)N1CCC(COc2cc(F)c(C(=O)NS(C)(=O)=O)cc2C2CC2)CC1 (stereo not drawn) [Example 89, 5-Cyclopropyl-4-((1-(1-(3,5-difluorophenyl)ethyl)piperidin-4-yl)methoxy)-2-fluoro-N-(methylsulfonyl)benzamide]	22.3	
CC1(COc2cc(F)c(C(=O)NS(C)(=O)=O)cc2C2CC2)CCN(Cc2ccc(F)cc2C(F)(F)F)CC1 [Example 130, 5-cyclopropyl-2-fluoro-4-((1-(4-fluoro-2-(trifluoromethyl)benzyl)-4-methylpiperidin-4-yl)methoxy)-N-(methylsulfonyl)benzamide]	3.5	
CS(=O)(=O)NC(=O)c1cc(C2CC2)c(OCC2CCN(C(c3cc(Cl)cc(Cl)c3)C(F)F)CC2)cc1F (stereo in doubt) [Example 225, (S)-5-cyclopropyl-4-((1-(1-(3,5-dichlorophenyl)-2,2-difluoroethyl)piperidin-4-yl)methoxy)-2-fluoro-N-(methylsulfonyl)benzamide]	17	
O=C(NS(=O)(=O)C1CC1)c1cc(C2CC2)c(OC[C@@H]2C[C@H]3CC[C@@H](C2)N3Cc2cc(C(F)(F)F)ccc2Cl)cc1F [Example 397, 4-(((1R,3S,5S)-8-(2-chloro-5-(trifluoromethyl)benzyl)-8-azabicyclo[3.2.1]octan-3-yl)methoxy)-5-cyclopropyl-N-(cyclopropylsulfonyl)-2-fluorobenzamide, trifluoroacetic acid salt]	5.7	
CS(=O)(=O)NC(=O)c1cc(C2CC2)c(OCC2CCN(Cc3ccc(C(F)(F)F)c(F)c3)CC2)cc1F [Example 247, 5-cyclopropyl-2-fluoro-4-((1-(3-fluoro-4-(trifluoromethyl)benzyl)piperidin-4-yl)methoxy)-N-(methylsulfonyl)benzamide]	8.9	
O=C(NS(=O)(=O)CCC(F)(F)F)c1cc(C2CC2)c(OCC2CN(C(c3ccccc3)c3ccccc3)C2)cc1F [Example 63, 4-((1-benzhydrylazetidin-3-yl)methoxy)-5-cyclopropyl-2-fluoro-N-((3,3,3-trifluoropropyl)sulfonyl)benzamide]	46	
O=C(NS(=O)(=O)C1CC1)c1cc(C2CC2)c(OC[C@@H]2C[C@H]3CC[C@@H](C2)N3Cc2cc(C(F)(F)F)cc(Cl)c2F)cc1F [Example 396, 4-(((1R,3S,5S)-8-(3-chloro-2-fluoro-5-(trifluoromethyl)benzyl)-8-azabicyclo-[3.2.1]octan-3-yl)methoxy)-5-cyclopropyl-N-(cyclopropylsulfonyl)-2-fluorobenzamide, trifluoroacetic acid salt]	14.8	
CS(=O)(=O)NC(=O)c1cc(C2CC2)c(OCC2CN(C(c3ccccc3)c3ccc(Cl)c(Cl)c3)C2)cc1F (stereo not drawn) [Example 80, 5-Cyclopropyl-4-((1-((3,4-dichlorophenyl)(phenyl)methyl)azetidin-3-yl)methoxy)-2-fluoro-N-(methylsulfonyl)benzamide]	4.05	
CS(=O)(=O)NC(=O)c1cc(C2CC2)c(OC[C@H]2CCN(Cc3cc(Cl)cc(Cl)c3)C(=O)C2)cc1F (single isomer, unassigned) [Example 235]	210	
CCS(=O)(=O)NC(=O)c1cc(C2CC2)c(OCC2CCN(Cc3cc(Cl)cc(C(F)(F)F)c3)CC2)cc1F [Example 216, 4-((1-(3-Chloro-5-(trifluoromethyl)benzyl)piperidin-4-yl)methoxy)-5-cyclopropyl-N-(ethylsulfonyl)-2-fluorobenzamide]	5	
CS(=O)(=O)NC(=O)c1cc(C2CC2)c(OCC2CCN(c3ccccc3)CC2)cc1F [Example 79, 5-cyclopropyl-2-fluoro-N-(methylsulfonyl)-4-((1-phenylpiperidin-4-yl)methoxy)benzamide]	9.9	
CC1(COc2cc(F)c(C(=O)NS(=O)(=O)C3CC3)cc2C2CC2)CN(C(c2ccccc2)c2ccccc2)C1 [Example 70, 4-((1-benzhydryl-3-methylazetidin-3-yl)methoxy)-5-cyclopropyl-N-(cyclopropylsulfonyl)-2-fluorobenzamide]	6	
CS(=O)(=O)NC(=O)c1cc(C2CC2)c(OCC2CN([C@H](c3ccccc3)c3ccc(OC(F)(F)F)cc3)C2)cc1F [Example 113, (R)-5-Cyclopropyl-2-fluoro-N-(methylsulfonyl)-4-((1-(phenyl(4-(trifluoromethoxy)phenyl)methyl)azetidin-3-yl)methoxy)benzamide]	11.1	
CS(=O)(=O)NC(=O)c1cc(C2CC2)c(O[C@@H]2CCCN(Cc3ccnnc3)C2)cc1F [Example 13, (R)-5-cyclopropyl-2-fluoro-N-(methylsulfonyl)-4-((1-(pyridazin-4-ylmethyl)piperidin-3-yl)oxy)benzamide]		1490
Cc1ccc(CN2CCC[C@@H](Oc3cc(F)c(C(=O)NS(=O)(=O)N4CCC4)cc3C3CC3)C2)cc1 [Example 33, (R)—N-(azetidin-1-ylsulfonyl)-5-cyclopropyl-2-4-fluoro-((1-(4-methylbenzyl)piperidin-3-yl)oxy)benzamide]		13.2

Results, then the compound that gave them:

IC50 [1] [nM]	IC50 [nM]	Compound
2670		Cc1nc(CN2CCC(COc3cc(F)c(C(=O)NS(=O)(=O)C4CC4)cc3C3CC3)CC2)cs1 [Example 354, 5-cyclopropyl-N-(cyclopropylsulfonyl)-2-fluoro-4-((1-((2-methylthiazol-4-yl)methyl)piperidin-4-yl)methoxy)benzamide, trifluoroacetic acid salt]
	2.2	O=C(NS(=O)(=O)C1CC1)c1cc(C2CC2)c(CN2CCC(Sc3cc(Cl)cc(Cl)c3)CC2)cc1F [Example 531, 5-cyclopropyl-N-(cyclopropylsulfonyl)-4-((4-((3,5-dichlorophenyl)thio)piperidin-1-yl)methyl)-2-fluorobenzamide, trifluoroacetic acid salt]
42.3		CS(=O)(=O)NC(=O)c1cc(C2CC2)c(O[C@@H]2CCCN(c3ccc(C(F)(F)F)cn3)C2)cc1F [Example 490, (R)-5-cyclopropyl-2-fluoro-N-(methylsulfonyl)-4-((1-(5-trifluoromethyl)pyridin-2-yl)piperidin-3-yl)oxy)benzamide, trifluoroacetic acid salt]
9.2		CCS(=O)(=O)NC(=O)c1cc(C2CC2)c(OCC2(C)CN(c3ncc(Cl)cc3F)C2)cc1F [Example 484, 4-((1-(5-chloro-3-fluoropyridin-2-yl)-3-methylazetidin-3-yl)methoxy)-5-cyclopropyl-N-(ethylsulfonyl)-2-fluorobenzamide]
80.6		O=C(NS(=O)(=O)C1CC1)c1cc(C2CC2)c(OCC2CCN(Cc3ncccc3C(F)(F)F)CC2)cc1F [Example 364, 5-cyclopropyl-N-(cyclopropylsulfonyl)-2-fluoro-4-((1-((3-(trifluoromethyl)pyridin-2-yl)methyl)piperidin-4-yl)methoxy)benzamide, trifluoroacetic acid salt]
35.2		CS(=O)(=O)NC(=O)c1cc(C2CC2)c(OC[C@@H]2CCCN(Cc3ccc(F)cc3Cl)C2)cc1F [Example 332, (R)-4-((1-(2-chloro-4-fluorobenzyl)piperidin-3-yl)methoxy)-5-cyclopropyl-2-fluoro-N-(methylsulfonyl)benzamide]
3.1		O=C(NS(=O)(=O)C1CC1)c1cc(C2CC2)c(OCC2CCN(C(c3cccc(Cl)c3)c3cccc(Cl)c3)CC2)cc1F [Example 401, 4-((1-(bis(3-chlorophenyl)methyl)piperidin-4-yl)methoxy)-5-cyclopropyl-N-(cyclopropylsulfonyl)-2-fluorobenzamide, trifluoroacetic acid salt]
290		O=C(NS(=O)(=O)C1CC1)c1cc(C2CC2)c(OCC2CCN(C(=O)c3ccccc3C(F)(F)F)CC2)cc1F [Example 256, 5-Cyclopropyl-N-(cyclopropylsulfonyl)-2-fluoro-4-((1-(2-(trifluoromethyl)benzoyl)piperidin-4-yl)methoxy)benzamide]
	15.2	C[C@H]1CN(Cc2cc(F)c(C(=O)NS(C)(=O)=O)cc2C2CC2)CCN1[C@@H](C)c1cc(Cl)cc(Cl)c1 [Example 567, 5-cyclopropyl-4-(((S)-4-((S)-1-(3,5-dichlorophenyl)ethyl)-3-methylpiperazin-1-yl)methyl)-2-fluoro-N-(methylsulfonyl)benzamide]
	3.6	C[C@@H](c1cc(Cl)cc(Cl)c1)N1C[C@@H]2C[C@H]1CN2Cc1cc(F)c(C(=O)NS(=O)(=O)C2CC2)cc1C1CC1 [Example 564, 5-cyclopropyl-N-(cyclopropylsulfonyl)-4-(((1S,4S)-5-((S)-1-(3,5-dichlorophenyl)ethyl)-2,5-diazabicyclo[2.2.1]heptan-2-yl)methyl)-2-fluorobenzamide, trifluoroacetic acid salt]
7.3		CS(=O)(=O)NC(=O)c1cc(C2CC2)c(O[C@@H]2CCCN(Cc3cccc(OC(F)(F)F)c3)C2)cc1F [Example 437, (R)-5-cyclopropyl-2-fluoro-N-(methylsulfonyl)-4-((1-(3-(trifluoromethoxy)benzyl)piperidin-3-yl)oxy)benzamide, trifluoroacetic acid salt]
8.5		CS(=O)(=O)NC(=O)c1cc(C2CC2)c(OCC2CCN(S(=O)(=O)c3cc(Cl)cc(Cl)c3)CC2)cc1F [Example 273, 5-Cyclopropyl-4-((1-((3,5-dichlorophenyl)sulfonyl)piperidin-4-yl)methoxy)-2-fluoro-N-(methylsulfonyl)benzamide]
